Where a SMILES comes first, the peptide text is derived from it. [ ]: non-standard residue; d: D form. The star is where a group is joined. BI2536acyl = CC[C@@H]1C(=O)N(C)c2cnc(Nc3ccc(C(=O)*)cc3OC)nc2N1C1CCCC1; His(π-(CH2)8Ph) = N[C@@H](Cc1cncn1CCCCCCCCc1ccccc1)C(=O)O; pT = C[C@@H](OP(=O)(O)O)[C@H](N)C(=O)O; AEEA = NCCOCCOCC(=O)O
Columns and labels:
[1] = target: T1, Serine/threonine-protein kinase PLK1 (Homo sapiens, UniProt P53350); assay: Displacement of biotin-Ahx-PMQSpTPLN from myc-tagged Plk1 in cytosolic lysates (unknown origin) preincubated for 1 hr followed by biotinylated probe addition and measured after 1 hr by ELISA; format: subcellular, Cytosol
T1 sequence (P53350 whole entry): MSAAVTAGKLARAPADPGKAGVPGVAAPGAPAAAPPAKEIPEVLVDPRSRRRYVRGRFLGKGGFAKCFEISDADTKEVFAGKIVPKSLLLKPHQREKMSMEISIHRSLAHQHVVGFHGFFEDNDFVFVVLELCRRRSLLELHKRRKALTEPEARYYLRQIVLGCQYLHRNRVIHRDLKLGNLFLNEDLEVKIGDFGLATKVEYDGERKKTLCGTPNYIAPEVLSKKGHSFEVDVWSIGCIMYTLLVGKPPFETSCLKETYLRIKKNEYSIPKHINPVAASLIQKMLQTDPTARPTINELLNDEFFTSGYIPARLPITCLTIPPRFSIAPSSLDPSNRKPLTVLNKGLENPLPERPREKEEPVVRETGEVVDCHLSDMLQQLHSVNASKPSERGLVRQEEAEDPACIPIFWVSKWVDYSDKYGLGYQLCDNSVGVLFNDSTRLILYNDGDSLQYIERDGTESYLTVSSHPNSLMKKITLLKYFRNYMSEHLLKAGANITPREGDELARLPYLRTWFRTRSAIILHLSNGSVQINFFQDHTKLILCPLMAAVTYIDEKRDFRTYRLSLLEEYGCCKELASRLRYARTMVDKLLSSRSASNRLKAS

[2] = target: T1, Serine/threonine-protein kinase PLK1; assay: Displacement of FITC-miniPEG-FDPPLHSpTA from full length Plk1 (unknown origin) preincubated for 30 mins followed by fluorescent probe addition and measured after 30 mins by fluorescence polarization assay

Row | SMILES | IC50 [1] | IC50 [2]
1 | CC[C@@H]1C(=O)N(C)c2cnc(Nc3ccc(C(=O)NCCCC[C@H](NC(=O)COCCOCCNC(=O)COCCOCCNC(=O)COCCOCCNC(=O)COCCOCCNC(=O)[C@@H](NC(=O)[C@H](CO)NC(=O)[C@H](Cc4cncn4CCCCCCCCc4ccccc4)NC(=O)[C@H](CC(C)C)NC(=O)[C@@H]4CCCN4C(C)=O)[C@@H](C)O)C(N)=O)cc3OC)nc2N1C1CCCC1 (Ac-PL[His(π-(CH2)8Ph)]ST[AEEA][AEEA][AEEA][AEEA]K(BI2536acyl)-NH2) | Not_active | Not_active
2 | CC[C@@H]1C(=O)N(C)c2cnc(Nc3ccc(C(=O)NCCCC[C@H](NC(C)=O)C(=O)NCCOCCOCC(=O)N[C@@H](Cc4cncn4CCCCCCCCc4ccccc4)C(=O)N[C@@H](CO)C(=O)N[C@H](C(N)=O)[C@@H](C)OP(=O)(O)O)cc3OC)nc2N1C1CCCC1 (Ac-K(BI2536acyl)[AEEA][His(π-(CH2)8Ph)]S[pT]-NH2) | Not_active | –
3 | CC[C@@H]1C(=O)N(C)c2cnc(Nc3ccc(C(=O)NCCCC[C@H](NC(C)=O)C(=O)NCCOCCOCC(=O)NCCOCCOCC(=O)NCCOCCOCC(=O)NCCOCCOCC(=O)N4CCC[C@H]4C(=O)N[C@@H](CC(C)C)C(=O)N[C@@H](Cc4cncn4CCCCCCCCc4ccccc4)C(=O)N[C@@H](CO)C(=O)N[C@H](C(N)=O)[C@@H](C)O)cc3OC)nc2N1C1CCCC1 (Ac-K(BI2536acyl)[AEEA][AEEA][AEEA][AEEA]PL[His(π-(CH2)8Ph)]ST-NH2) | Not_active | Not_active
4 | CC[C@@H]1C(=O)N(C)c2cnc(Nc3ccc(C(=O)NCCCC[C@H](NC(=O)COCCOCCNC(=O)[C@@H](NC(=O)[C@H](CO)NC(=O)[C@H](Cc4cncn4CCCCCCCCc4ccccc4)NC(C)=O)[C@@H](C)OP(=O)(O)O)C(N)=O)cc3OC)nc2N1C1CCCC1 (Ac-[His(π-(CH2)8Ph)]S[pT][AEEA]K(BI2536acyl)-NH2) | Not_active | –

More lines, now with the values ahead:

Row | IC50 [1] | IC50 [2] | SMILES
5 | Not_active | Not_active | CC[C@@H]1C(=O)N(C)c2cnc(Nc3ccc(C(=O)NCCCC[C@H](NC(C)=O)C(=O)NCCOCCOCC(=O)NCCOCCOCC(=O)NCCOCCOCC(=O)NCCOCCOCC(=O)N4CCC[C@H]4C(=O)N[C@@H](CC(C)C)C(=O)N[C@@H](Cc4c[nH]cn4)C(=O)N[C@@H](CO)C(=O)N[C@H](C(N)=O)[C@@H](C)O)cc3OC)nc2N1C1CCCC1 (Ac-K(BI2536acyl)[AEEA][AEEA][AEEA][AEEA]PLHST-NH2)
6 | Not_active | Not_active | CC[C@@H]1C(=O)N(C)c2cnc(Nc3ccc(C(=O)NCCCC[C@H](NC(=O)COCCOCCNC(=O)COCCOCCNC(=O)COCCOCCNC(=O)COCCOCCNC(=O)[C@@H](NC(=O)[C@H](CO)NC(=O)[C@H](Cc4c[nH]cn4)NC(=O)[C@H](CC(C)C)NC(=O)[C@@H]4CCCN4C(C)=O)[C@@H](C)O)C(N)=O)cc3OC)nc2N1C1CCCC1 (Ac-PLHST[AEEA][AEEA][AEEA][AEEA]K(BI2536acyl)-NH2)

Source: ChEMBL document CHEMBL6109049, “Fine-tuning probes for fluorescence polarization binding assays of bivalent ligands against polo-like kinase 1 using full-length protein” (Bioorg Med Chem, 2025)
